Legend:
[1] = target: T1, ATPase family AAA domain-containing protein 2 (Homo sapiens, UniProt Q6PL18); experiment: Inhibition of recombinant human N-terminal GST-tagged ATAD2 bromodomain (981 to 1146 residues) expressed in Escherichia coli using biotinylated peptide SGRGK(Ac)GGKGLGKGGAKRHRKVLRDNGSGS as substrate incubated for 3 hrs by TR-FRET assay
T1 sequence (Q6PL18 whole entry): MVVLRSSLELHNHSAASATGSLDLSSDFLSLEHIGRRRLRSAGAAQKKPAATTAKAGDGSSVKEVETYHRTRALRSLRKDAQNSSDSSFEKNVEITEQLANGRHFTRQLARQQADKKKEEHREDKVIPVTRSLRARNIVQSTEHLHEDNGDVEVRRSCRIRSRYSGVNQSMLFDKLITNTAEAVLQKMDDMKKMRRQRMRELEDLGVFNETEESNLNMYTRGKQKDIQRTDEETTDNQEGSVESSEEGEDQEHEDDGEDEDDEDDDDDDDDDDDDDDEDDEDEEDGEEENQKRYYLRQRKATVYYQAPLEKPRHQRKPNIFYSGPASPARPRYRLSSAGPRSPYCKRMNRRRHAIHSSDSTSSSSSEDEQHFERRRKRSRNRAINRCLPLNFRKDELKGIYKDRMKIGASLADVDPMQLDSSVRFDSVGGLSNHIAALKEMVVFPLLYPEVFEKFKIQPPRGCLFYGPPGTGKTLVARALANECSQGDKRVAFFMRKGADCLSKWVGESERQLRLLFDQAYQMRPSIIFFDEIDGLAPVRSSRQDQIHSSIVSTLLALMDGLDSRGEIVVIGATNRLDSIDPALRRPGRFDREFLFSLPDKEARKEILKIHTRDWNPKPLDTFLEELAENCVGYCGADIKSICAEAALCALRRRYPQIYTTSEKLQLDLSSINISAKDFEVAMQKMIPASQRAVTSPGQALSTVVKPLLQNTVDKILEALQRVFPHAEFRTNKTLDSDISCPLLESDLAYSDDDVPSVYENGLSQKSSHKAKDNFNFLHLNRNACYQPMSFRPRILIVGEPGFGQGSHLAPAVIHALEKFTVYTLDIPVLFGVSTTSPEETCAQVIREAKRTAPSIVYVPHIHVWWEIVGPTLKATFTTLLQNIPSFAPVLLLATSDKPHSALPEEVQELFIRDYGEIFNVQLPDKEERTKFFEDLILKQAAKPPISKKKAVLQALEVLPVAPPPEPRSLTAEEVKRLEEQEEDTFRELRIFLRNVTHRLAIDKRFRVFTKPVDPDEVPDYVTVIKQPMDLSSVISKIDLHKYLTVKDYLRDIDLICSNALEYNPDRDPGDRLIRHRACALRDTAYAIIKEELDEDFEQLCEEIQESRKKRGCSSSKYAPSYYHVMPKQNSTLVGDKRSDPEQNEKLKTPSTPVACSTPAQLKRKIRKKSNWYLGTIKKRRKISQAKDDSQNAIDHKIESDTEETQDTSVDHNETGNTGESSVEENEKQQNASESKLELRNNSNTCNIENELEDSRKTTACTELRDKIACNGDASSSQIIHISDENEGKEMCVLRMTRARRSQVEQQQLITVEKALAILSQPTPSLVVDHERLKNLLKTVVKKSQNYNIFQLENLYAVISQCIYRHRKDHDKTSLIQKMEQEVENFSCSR

[2] = target: T1, ATPase family AAA domain-containing protein 2; experiment: Binding affinity to recombinant human N-terminal GST-tagged ATAD2 bromodomain (981 to 1146 residues) expressed in Escherichia coli at 10 degree C by isothermal titration calorimetry

Row | SMILES | IC50 [1] | Kd [2]
1 | C[C@@H](N)C(=O)Nc1nc2c(s1)CCCC2=O | > 150 µM | 
2 | CC(=O)c1nc(NC(=O)[C@@H](C)N)sc1-c1cccc(O)c1 | > 150 µM | 
3 | CC(=O)c1nc(NC(=O)[C@H]2CNCCN2)sc1-c1ccc(N2CCCC2=O)cc1 | > 150 µM | 
4 | CC(=O)c1nc(NC(=O)[C@@H](C)N)sc1-c1cncc(N)c1 | > 150 µM | 
5 | CC(=O)c1nc(NC(=O)[C@@H](C)NC(=N)N)sc1-c1cncc(N)c1 | > 150 µM | 
6 | CC(=O)c1nc(NC(=O)C(C)(C)N)sc1-c1cncc(N)c1 | > 150 µM | 
7 | CC(=O)c1nc(NC(=O)[C@H]2CNCCN2)sc1-c1ccc(C(=O)N2CCOCC2)cc1 | > 150 µM | 
8 | CC(=O)c1nc(NC(=O)[C@H]2CNCCN2)sc1-c1cncc(N)c1 | > 150 µM | 
9 | CC(=O)c1csc(NC(=O)[C@H]2CNCCN2)n1 | > 150 µM | 
10 | CC(=O)c1csc(NC(=O)C(C)(C)N)n1 | > 150 µM | 

Continued, values first:

Row | IC50 [1] | Kd [2] | SMILES
11 | > 150 µM |  | COc1cccc(-c2sc(NC(=O)[C@@H](C)N)nc2C(C)=O)c1
12 | 15 µM | 25 µM | CC(=O)c1csc(NC(=O)[C@H]2CNCCN2CCC2CCC(F)(F)CC2)n1
13 | > 150 µM |  | CC(=O)c1nc(NC(=O)[C@@H](C)N)sc1-c1cccc(N)c1
14 | > 150 µM |  | CC(=O)c1nc(NC(=O)[C@H]2CNCCN2CCC2CCC(F)(F)CC2)sc1-c1cncc(N)c1
15 | 140 µM |  | CC(=O)c1csc(NC(=O)[C@@H](C)NC(=N)N)n1
16 | 80 µM |  | CC(=O)c1nc(NC(=O)C2(N)CCC2)sc1-c1cncc(N)c1
17 | 95 µM |  | CC(=O)c1nc(NC(=O)[C@@H](C)N)sc1-c1cccnc1
18 | 336 µM |  | CC(=O)c1csc(NC(=O)[C@@H](C)N)n1

— ChEMBL document CHEMBL4619815, “Hitting a Moving Target: Simulation and Crystallography Study of ATAD2 Bromodomain Blockers” (ACS Med Chem Lett, 2020)
